Data as given in patent US11098040B2, “Compounds and methods of use” (Ferro Therapeutics, Inc., priority 2018, dated 2021).
Where two headings read alike, the source gives them in different places.

Tests used:
[1] = Whole blood stability, human; assay type: in vitro ADME
Excerpt: (§1) The results of the assay on stability in blood and IC50 values for pancreatic cancer cell line KP4 are given below in Table 24.

[2] = test system: KP4; experiment: Cell viability assay (CellTiter Glo), pancreatic ductal adenocarcinoma KP4; assay type: cell-based, human; settings: Homo sapiens
Procedure, shortened: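 Luminescent ATP readout (CellTiter Glo) after 96 h compound exposure, normalized to DMSO-treated cells as maximum. Compounds ran in duplicate, nine 3-fold steps from 30 μM down to 4.6 nM, final DMSO ≤0.25%; KP4 plated overnight at 1,000–10,000 cells/well. Outputs: IC50, relative IC50 or % top inhibition.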

[3] = test system: A673; experiment: Cell proliferation assay, A673 (Table 25); assay type: cell-based; settings: Homo sapiens, A673, Cell Line A673
Procedure: (§2) Cell viability assay was performed to assess the potency of the compounds in human cancer cell lines 786-O (renal cell carcinoma) and SJSA-1 (osteosarcoma). Additional cell lines, such as those described above in Example 4 as well as various others, e.g., pancreatic cancer cell lines (Panc 02.13, BxPC-3, Panc 12, Panc 02.03, Panc 6.03, PSN-1, HPAC, and Capan-1) and prostate cancer cell lines (PC-3, DU145, 22Rv1, NCI-H660, BPH1, LNCaP, BM-1604, and MDA PCa 2b), were tested for select compounds as shown in Table 25.
(§3) The cell proliferation assays for the compounds shown Table 25 was performed according to the protocols described herein, including Examples 4 and 6.

[4] = Whole blood stability, mouse; assay type: in vitro ADME
Excerpt: as §1

[5] = test system: HPAC; experiment: Cell proliferation assay, pancreatic cancer cell line HPAC; assay type: cell-based; settings: Homo sapiens
Procedure: as §2, §3

[6] = test system: PC-3; experiment: Cell proliferation assay, prostate cancer cell line PC-3; assay type: cell-based; settings: Homo sapiens
Procedure: as §2, §3

[7] = test system: BxPC-3; experiment: Cell proliferation assay, pancreatic cancer cell line BxPC-3; assay type: cell-based; settings: Homo sapiens
Procedure: as §2, §3

[8] = test system: H2228; experiment: Cell viability assay (CellTiter Glo), lung cancer cell line H2228; assay type: cell-based; settings: Homo sapiens, NCI-H2228; Cell Line H2228; read-out: IC50
Procedure, shortened: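 Cells were seeded at 500-5,000/well (adherent) or 5,000-10,000/well (suspension), left overnight at 37° C, then exposed to a 9-point 3-fold compound dilution series from up to 30 μM, final DMSO 0.25% or less. After 96 h, viability was read by CellTiter Glo luminescence.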

[9] = test system: Panc 02.03; experiment: Cell proliferation assay, pancreatic cancer cell line Panc 02.03; assay type: cell-based; settings: Homo sapiens
Procedure: as §2, §3

[10] = test system: 22Rv1; experiment: Cell proliferation assay, prostate cancer cell line 22Rv1; assay type: cell-based; settings: Homo sapiens
Procedure: as §2, §3

[11] = test system: 143B; experiment: Cell viability assay (CellTiter Glo), osteosarcoma 143B; assay type: cell-based; settings: Homo sapiens, Cell Line 143B, read-out: IC50
Procedure, shortened: (§4)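 Cells seeded at 500-5,000/well overnight, then 96 h exposure to 9-point 3-fold dilutions from up to 30 μM (4.6 nM-30 μM), final DMSO ≤0.25%. Viability by CellTiter Glo luminescence; inhibition relative to DMSO-only cells, yielding IC50, relative IC50 or % top inhibition.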

[12] = test system: Capan-1; experiment: Cell proliferation assay, pancreatic cancer cell line Capan-1; assay type: cell-based; settings: Homo sapiens
Procedure: as §2, §3

[13] = test system: BPH1; experiment: Cell proliferation assay, prostate cancer cell line BPH1; assay type: cell-based; settings: Homo sapiens, BPH-1
Procedure: as §2, §3

[14] = test system: AsPC-1; experiment: Cell viability assay (CellTiter Glo), pancreatic adenocarcinoma AsPC-1; assay type: cell-based; settings: Homo sapiens, ASPC1; Cell Line AsPC-1; read-out: IC50
Procedure, shortened: (§5)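 MiaPaCa-2 and AsPC-1 cells were seeded overnight at 37 °C and exposed for 96 h to 9-point, 3-fold dilutions from up to 30 μM (final DMSO ≤0.25%). CellTiter Glo luminescence was read, and inhibition was calculated relative to DMSO-only cells. IC50, relative IC50 or % top inhibition was derived.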

[15] = test system: Panc 6.03; experiment: Cell proliferation assay, pancreatic cancer cell line Panc 6.03; assay type: cell-based
Procedure: as §2, §3

[16] = test system: Panc 12; experiment: Cell proliferation assay, pancreatic cancer cell line Panc 12; assay type: cell-based
Procedure: as §2, §3

[17] = test system: NCI-H660; experiment: Cell proliferation assay, prostate cancer cell line NCI-H660; assay type: cell-based
Procedure: as §2, §3

[18] = test system: BM-1604; experiment: Cell proliferation assay, prostate cancer cell line BM-1604; assay type: cell-based
Procedure: as §2, §3

[19] = test system: MiaPaCa-2; experiment: Cell viability assay (CellTiter Glo), pancreatic carcinoma MiaPaCa-2; assay type: cell-based; settings: Homo sapiens; Cell Line Mia PaCa-2; read-out: IC50
Procedure, shortened: as §5

[20] = test system: A549; experiment: Cell viability assay, A549 cells; assay type: cell-based; settings: Homo sapiens, A549, Cell Line A549; read-out: IC50
Procedure, shortened: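 Growth of A549 cells was assessed with a cell viability assay. Cells were plated at 1,000-10,000 cells/well in 96-well plates and incubated overnight at 37° C. Nine-point 3-fold DMSO dilutions, starting from 30 μM and run in duplicate, were diluted into media (final DMSO 0.25% or less). After 96 hours, CellTiter Glo luminescence was read, inhibition was calculated against DMSO controls, and IC50 was fitted in XL-fit.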

[21] = test system: PSN-1; experiment: Cell proliferation assay, pancreatic cancer cell line PSN-1; assay type: cell-based; settings: Homo sapiens, PSN1
Procedure: as §2, §3

[22] = test system: DU145; experiment: Cell proliferation assay, prostate cancer cell line DU145; assay type: cell-based; settings: Homo sapiens, DU-145
Procedure: as §2, §3

[23] = test system: Panc 02.13; experiment: Cell proliferation assay, pancreatic cancer cell line Panc 02.13; assay type: cell-based
Procedure: as §2, §3

[24] = test system: MG-63; experiment: Cell proliferation assay, MG-63 (Table 25); assay type: cell-based; settings: Homo sapiens
Procedure: as §2, §3

[25] = test system: MDA PCa 2b; experiment: Cell proliferation assay, prostate cancer cell line MDA PCa 2b; assay type: cell-based
Procedure: as §2, §3

[26] = test system: HT-1080 luc2; experiment: Cell viability assay (CellTiter Glo), fibrosarcoma HT-1080 luc2; assay type: cell-based; settings: Homo sapiens, Cell Line HT1080, read-out: IC50
Procedure, shortened: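 HT-1080 luc2 fibrosarcoma cells seeded overnight, then exposed 96 h at 37° C to 9-point 3-fold dilutions (top up to 30 μM; DMSO ≤0.25% final). CellTiter Glo luminescence; % inhibition relative to DMSO-only wells, fitted to IC50, relative IC50 or % top inhibition.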

[27] = test system: U-2 OS; experiment: Cell proliferation assay, U-2 OS (Table 25); assay type: cell-based; settings: Homo sapiens, U2OS; Cell Line U-2 OS
Procedure: as §2, §3

[28] = test system: LNCaP; experiment: Cell proliferation assay, prostate cancer cell line LNCaP; assay type: cell-based; settings: Homo sapiens
Procedure: as §2, §3

[29] = test system: SJSA-1; experiment: Cell viability assay (CellTiter Glo), osteosarcoma SJSA-1; assay type: cell-based; settings: Homo sapiens, 96 hours
Procedure, shortened: as §4

[30] = test system: SJSA-1; experiment: Cell proliferation (Alamar Blue) assay, SJSA-1 osteosarcoma, with/without ferrostatin; assay type: cell-based, human; settings: Homo sapiens, SJSA-1, Cell Line SJSA-1; read-out: IC50
Procedure, shortened: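 Cells seeded at 5000/well, 16-24 h, then exposed 24 h at 37° C to compound, 10-0.0005 μM in 3-fold dilutions, 1% DMSO final. Alamar Blue fluorescence (ex 540/em 590 nm) read after 1.5 h; IC50 from variable-slope sigmoidal fit.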

[31] = test system: KHOS/NP; experiment: Cell proliferation assay, KHOS/NP (Table 25); assay type: cell-based; settings: Homo sapiens, Cell Line KHOS/NP
Procedure: as §2, §3

[32] = test system: KSK-ES-1; experiment: Cell proliferation assay, KSK-ES-1 (Table 25); assay type: cell-based; settings: Cell Line KSK-ES-1
Procedure: as §2, §3

COc1ccc2[nH]c3c(c2c1)C[C@H](C)N(C(=O)CCl)[C@H]3c1ccc(N2CCOCC2)cc1 [Compound 121]
Whole Blood Stability % Remaining at 37° C. Human ([1]; 0 min): 100.0% | Whole Blood Stability % Remaining at 37° C. Human ([1]; 30 min): 90.3% | Whole Blood Stability % Remaining at 37° C. Human ([1]; 60 min): 61.3% | IC50 ([2]; KP-4, 96 h, pancreatic cancer cell line KP4, 96 hours, CellTiter Glo, read-out: IC50 μM KP4): < 0.01 µM | IC50 [3]: 88.5 nM | Whole Blood Stability % Remaining at 37° C. Mouse ([4]; 0 min): 100.0% | Whole Blood Stability % Remaining at 37° C. Mouse ([4]; 30 min): 84.3% | Whole Blood Stability % Remaining at 37° C. Mouse ([4]; 60 min): 50.0%

CCCC[C@H]1Cc2c([nH]c3ccccc23)[C@H](c2ccc(N3CCOCC3)cc2)N1C(=O)CCl [Compound 240]
IC50 [5]: 28.6 nM | IC50 [6]: 3.9 nM | IC50 [7]: 71.1 nM | IC50 [8]: 1.7 nM | IC50 [9]: 64.1 nM | IC50 [10]: 22.9 nM | IC50 [11]: 5.22 nM | IC50 [12]: 169 nM | IC50 [13]: 203 nM | IC50 [14]: 7.57 nM | IC50 [15]: 16.9 nM | IC50 ([16]; Cell Line Panc 11): 8.55 nM | IC50 [17]: 31.7 nM | IC50 [18]: > 2000 nM | IC50 [19]: 35.1 nM | IC50 [20]: 5700 nM | IC50 [21]: 19.9 nM | IC50 [22]: 6.2 nM | IC50 [23]: 120 nM | IC50 ([24]; MG-63, Cell Line MG-63): 39.7 nM | IC50 ([24]; MG-63, Cell Line MG-68): > 3000 nM | IC50 [25]: > 2000 nM | IC50 [26]: 4.82 nM | IC50 [27]: 4280 nM | IC50 [28]: 574 nM

CC[C@H]1Cc2c([nH]c3ccccc23)[C@H](c2ccc(N3CCOCC3)cc2)N1C(=O)CCl [Example 117]
IC50 [5]: 48.4 nM | IC50 [7]: 86.7 nM | IC50 [8]: 3.37 nM | IC50 [9]: 148 nM | IC50 [11]: 11.4 nM | IC50 [12]: 261 nM | IC50 [14]: 12.7 nM | IC50 [15]: 32.8 nM | IC50 ([16]; Cell Line Panc 8): 14.8 nM | IC50 [19]: 57 nM | IC50 [21]: 46.2 nM | IC50 [23]: 216 nM | IC50 [26]: 7.16 nM | IC50 [27]: 3600 nM

CCC[C@H]1Cc2c([nH]c3ccccc23)[C@H](c2ccc(N3CCOCC3)cc2)N1C(=O)CCl [Example 118]
IC50 [5]: 20.5 nM | IC50 [7]: 54.4 nM | IC50 [8]: 1.38 nM | IC50 [9]: 48.9 nM | IC50 [11]: 4.74 nM | IC50 [12]: 130 nM | IC50 [29]: 28 nM | IC50 [14]: 7.34 nM | IC50 [15]: 15.6 nM | IC50 ([16]; Cell Line Panc 9): 6.38 nM | IC50 [19]: 16.4 nM | IC50 [20]: 5370 nM | IC50 [21]: 17.6 nM | IC50 [23]: 103 nM | IC50 ([24]; MG-63, Cell Line MG-63): 39.3 nM | IC50 ([24]; MG-63, Cell Line MG-67): > 3000 nM | IC50 [26]: 3.81 nM | IC50 [27]: 5020 nM | IC50 ([2]; KP-4, Cell Line KP4, read-out: IC50): 0.00092 µM

COc1ccc2[nH]c3c(c2c1)C[C@H](C)N(C(=O)CCl)[C@H]3c1ccc(N2CCOCC2)cc1 [Example 121]
IC50 [5]: 206 nM | IC50 [7]: 1020 nM | IC50 [8]: 16.6 nM | IC50 [9]: 689 nM | IC50 [12]: > 1000 nM | IC50 [30]: 108 nM | IC50 [31]: 63.2 nM | IC50 [14]: 69.3 nM | IC50 [15]: 225 nM | IC50 ([16]; Cell Line Panc 10): 58.6 nM | IC50 [19]: 206 nM | IC50 [20]: 7810 nM | IC50 [32]: 215 nM | IC50 [21]: 175 nM | IC50 [23]: 978 nM | IC50 ([24]; MG-63, Cell Line MG-63): 535 nM | IC50 [26]: 63.2 nM | IC50 [27]: 4890 nM
